Experimental data: US20150037394A1, “DRUG DELIVERY FORMULATIONS” (King's College London, priority 2011, published 2015)
Counter-ions that a name gives are not always drawn.

Experiments:
[1] = Visually determined saturated solubility in various solvents; type: physicochemical
Procedure: The solubility experiments were performed by weighing 0.5±0.05 g of each excipient into glass vials (28 mL). The API (5.0±0.5 mg) was weighed by difference on a plastic weigh boat and transferred into the corresponding vial. […] Once saturation was achieved the mg/g API to solvent ratio was recorded.

[2] = http://www.drugbank.ca/; cited from earlier work
[3] = literature sources; sildenafil base value marked experimentally determined; cited from earlier work
[4] = after 15 minutes exposure to an infrared bulb; cited from earlier work

Visually determined saturated solubility ([1]; Solvent Arlasolve DMI) [mg/g]	Visually determined saturated solubility ([1]; Solvent Diethyl Ether) [mg/g]	Visually determined saturated solubility ([1]; Solvent EtOH) [mg/g]	Visually determined saturated solubility ([1]; Solvent IPA) [mg/g]	Visually determined saturated solubility ([1]; Solvent Isoamyl Alcohol) [mg/g]	Visually determined saturated solubility ([1]; Solvent MeOH) [mg/g]	Visually determined saturated solubility ([1]; Solvent PEG-400) [mg/g]	Visually determined saturated solubility ([1]; Solvent PG) [mg/g]	Visually determined saturated solubility ([1]; Solvent Phenoxyethanol) [mg/g]	Visually determined saturated solubility ([1]; Solvent Transcutol P) [mg/g]	SMILES	Log P [2]	mg/ml figure listed among physicochemical properties (solubility) [3] [mg/mL]	Fold increase in permeation [4]
<0.29	<0.54	<0.35	<0.34	<0.31	0.29 to 0.62	0.799 to 1.07	1.66 to 2.39	0.54 to 1.08	<0.30	Nc1nc2c(ncn2COCCO)c(=O)[nH]1 [Acyclovir]	−1.56		
										O=C(O)Cc1ccccc1Nc1c(Cl)cccc1Cl [Diclofenac diethyl amine]		4.1	
57.90 to 110.45	21.28 to 49.89	31.60 to 62.79	29.97 to 58.09	34.25 to 53.55	34.43 to 68.06	28.83 to 51.73	10.15 to 20.50	34.32 to 81.12	108.73 to 162.17	O=C(O)Cc1ccccc1Nc1c(Cl)cccc1Cl [Diclofenac free acid]			
										CCCc1nn(C)c2c(=O)[nH]c(-c3cc(S(=O)(=O)N4CCN(C)CC4)ccc3OCC)nc12 [Sildenafil base]		< 0.83	
										O=[N+]([O-])OCC(CO[N+](=O)[O-])O[N+](=O)[O-] [nitroglycerin]			2-3 fold

SMILES	Visually determined saturated solubility ([1]; Solvent Arlasolve DMI) [mg/g]	Visually determined saturated solubility ([1]; Solvent Diethyl Ether) [mg/g]	Visually determined saturated solubility ([1]; Solvent EtOH) [mg/g]	Visually determined saturated solubility ([1]; Solvent IPA) [mg/g]	Visually determined saturated solubility ([1]; Solvent Isoamyl Alcohol) [mg/g]	Visually determined saturated solubility ([1]; Solvent MeOH) [mg/g]	Visually determined saturated solubility ([1]; Solvent PEG-400) [mg/g]	Visually determined saturated solubility ([1]; Solvent PG) [mg/g]	Visually determined saturated solubility ([1]; Solvent Phenoxyethanol) [mg/g]	Visually determined saturated solubility ([1]; Solvent Transcutol P) [mg/g]	Log P [2]	mg/ml figure listed among physicochemical properties (solubility) [3] [mg/mL]	Fold increase in permeation [4]
CCCc1nn(C)c2c(=O)[nH]c(-c3cc(S(=O)(=O)N4CCN(C)CC4)ccc3OCC)nc12 [Sildenafil citrate]	<0.88	<0.90	0.54 to 1.06	<1.27	<0.45	6.60 to 10.02	3.85 to 6.32	1.90 to 2.86	6.56 to 9.88	2.14 to 2.85			
